Assay: Distribution coefficient in n-heptane/isopropanol/water phase system
Assay type: physicochemical
Conditions: lighter phase about 90% n-heptane/10% isopropanol; heavier phase about 32% isopropanol/68% water
Source text: The present applicants have found an n-heptane/isopropanol/water system to be effective for purifying 33-epi-chloro-33-desoxyascomycin. In one embodiment, the following phase system is used to purify 33-epi-chloro-33-desoxyascomycin: the lighter phase comprises a mixture in weight-% of about 90% n-heptane, e.g. 89%, and about 10% isopropanol, e.g. 11%; the heavier hase comprises a mixture of about 32% isopropanol, e.g. 31%, and about 68% water, e.g. 69%.
The distribution coefficient is defined herein as the ratio of the concentration (in g/unit volume) of product in the lighter phase to the concentration (in g/unit volume) of product in the heavier aqueous phase at 40° C. The following distribution coefficients are obtained for cyclosporins between 75% n-heptane /25% acetone as lighter organic phase, and 50% acetone 50% water as heavier aqueous phase:
The distribution coefficient for 33-epi-chloro-33-desoxyascomycin is found to be around 7.6 using the above n-heptane/isopropanol/water phase system. The selectivity of ascomycin derivative side product to 33-epi-chloro-33-desoxyascomycin is found to be approximately 1.44.

Row | SMILES | Distribution coefficient
1 | CC[C@@H]1/C=C(\C)C[C@H](C)C[C@H](OC)[C@H]2O[C@@](O)(C(=O)C(=O)N3CCCC[C@H]3C(=O)O[C@H](/C(C)=C/[C@@H]3CC[C@H](Cl)[C@H](OC)C3)[C@H](C)[C@@H](O)CC1=O)[C@H](C)C[C@@H]2OC [33-epi-chloro-33-desoxyascomycin] | around 7.6

Assay: Distribution coefficient of cyclosporins between lighter organic phase and heavier aqueous phase (n-heptane/acetone/water)
Assay type: physicochemical
Conditions: conc. in lighter phase / conc. in heavier aqueous phase at 40° C.; 75% n-heptane/25% acetone vs 50% acetone/50% water
Protocol: The distribution coefficient is defined herein as the ratio of the concentration (in g/unit volume) of product in the lighter phase to the concentration (in g/unit volume) of product in the heavier aqueous phase at 40° C.

Row | SMILES | Distribution coefficient (to one decimal place)
2 | C/C=C/C[C@@H](C)[C@@H](O)[C@H]1C(=O)N[C@@H](C)C(=O)N(C)CC(=O)N(C)[C@@H](CC(C)C)C(=O)N[C@@H](C(C)C)C(=O)N(C)[C@@H](CC(C)C)C(=O)N[C@@H](C)C(=O)N[C@H](C)C(=O)N(C)[C@@H](CC(C)C)C(=O)N(C)[C@@H](CC(C)C)C(=O)N(C)[C@@H](C(C)C)C(=O)N1C [Cyclosporin B] | 0.4
3 | C/C=C/C[C@@H](C)[C@@H](O)[C@H]1C(=O)N[C@@H]([C@@H](C)O)C(=O)N(C)CC(=O)N(C)[C@@H](CC(C)C)C(=O)N[C@@H](C(C)C)C(=O)N(C)[C@@H](CC(C)C)C(=O)N[C@@H](C)C(=O)N[C@H](C)C(=O)N(C)[C@@H](CC(C)C)C(=O)N(C)[C@@H](CC(C)C)C(=O)N(C)[C@@H](C(C)C)C(=O)N1C [Cyclosporin C] | 0.3
4 | C/C=C/C[C@@H](C)[C@@H](O)[C@H]1C(=O)N[C@@H](C(C)C)C(=O)N(C)CC(=O)N(C)[C@@H](CC(C)C)C(=O)N[C@@H](C(C)C)C(=O)N(C)[C@@H](CC(C)C)C(=O)N[C@@H](C)C(=O)N[C@H](C)C(=O)N(C)[C@@H](CC(C)C)C(=O)N(C)[C@@H](CC(C)C)C(=O)N(C)[C@@H](C(C)C)C(=O)N1C [Cyclosporin D] | 1.7
5 | CCCC[C@@H](C)[C@@H](O)[C@H]1C(=O)N[C@@H](CC)C(=O)N(C)CC(=O)N(C)[C@@H](CC(C)C)C(=O)N[C@@H](C(C)C)C(=O)N(C)[C@@H](CC(C)C)C(=O)N[C@@H](C)C(=O)N[C@H](C)C(=O)N(C)[C@@H](CC(C)C)C(=O)N(C)[C@@H](CC(C)C)C(=O)N(C)[C@@H](C(C)C)C(=O)N1C [Cyclosporin Dihydro-A, dihydro-Cyclosporin A] | 1.0
6 | C/C=C/C[C@@H](C)[C@@H](O)[C@H]1C(=O)N[C@@H](CCC)C(=O)N(C)CC(=O)N(C)[C@@H](CC(C)C)C(=O)N[C@@H](C(C)C)C(=O)N(C)[C@@H](CC(C)C)C(=O)N[C@@H](C)C(=O)N[C@H](C)C(=O)N(C)[C@@H](CC(C)C)C(=O)N(C)[C@@H](CC(C)C)C(=O)N(C)[C@@H](C(C)C)C(=O)N1C [Cyclosporin G] | 1.3
7 | C/C=C/C[C@@H](C)[C@@H](O)[C@@H]1NC(=O)[C@H](C(C)C)N(C)C(=O)[C@H](CC(C)C)N(C)C(=O)[C@H](CC(C)C)N(C)C(=O)[C@@H](C)NC(=O)[C@H](C)NC(=O)[C@H](CC(C)C)N(C)C(=O)[C@H](C(C)C)NC(=O)[C@H](CC(C)C)N(C)C(=O)CN(C)C(=O)[C@H](CC)NC1=O [Cyclosporin L] | 0.5
8 | C/C=C/C[C@@H](C)[C@@H](O)[C@H]1C(=O)N[C@@H](CC)C(=O)N(C)CC(=O)N(C)[C@@H](CC(C)C)C(=O)N[C@@H](C(C)C)C(=O)N[C@@H](CC(C)C)C(=O)N[C@@H](C)C(=O)N[C@H](C)C(=O)N(C)[C@@H](CC(C)C)C(=O)N(C)[C@@H](CC(C)C)C(=O)N(C)[C@@H](C(C)C)C(=O)N1C [Cyclosporin U] | 0.6
